Results on two molecules are retold here after EP1884243A1, “Use of an antipsychotic drug for the treatment of ALS-associated cachexia” (Charité - Universitätsmedizin Berlin, priority 2006, dated 2008).

Data set [1] relates to ALS. The following applies: ALS patients; background statement on the approved therapy; cited from earlier work.
The test system of data set [2] is ALS-related cachexia. The data set can be described thus: Study: olanzapine treatment of ALS-related cachexia, case report of a patient. Format: in vivo, human being. An excerpt: A patient is reported, who developed a slowly-progressive motor neuron syndrome. The patient fulfilled the criteria for definite ALS. The disease began with atrophy and weakness of the small muscles of the left hand followed by weakness of the right distal arm. In the course of 2 years after onset they experienced slowly progressive atrophy and flaccid paresis of the upper limbs with only residual functions in handling articles. After 4 years they developed a gait disorder which progressed to the point were they required a walking-aid. […] The patient was without dysphagia.
During the course of 10 months, the patient developed an unintended weight loss of 12 kg of body weight resulting in fatigue and reduced mobility. The patient suffered from diminished appetite. The body mass index (BMI) was 17.2 kg/m^2 and fulfilled the diagnostic criteria of cachexia. For the pharmacological intervention of ALS-related cachexia the medication with olanzapine was initiated. Olanzapine was given orally in the dosage of 5 mg per day. Olanzapine was administered twice daily using one tablet of olanzapine 2.5 mg each in the morning and in the evening. […] The BMI increased to 18,8 kg/m^2. […] Residual motor functions were mobilized. […] At the time of this report, the olanzapine treatment was ongoing.

Data set [3] relates to ALS-related cachexia. The experiment in a line: Study 2: olanzapine treatment of ALS-related cachexia, case report of a patient. The data set is classed as in vivo, human being. An excerpt:
A patient is reported, who developed a slowly-progressive motor neuron syndrome. The patient fulfilled the criteria for ALS. The disease began with atrophy and weakness of the small muscles of the right hand followed by weakness of the proximal muscles of right arm and the opposite upper limb. In the course of 4 years after onset they experienced progressive atrophy and flaccid paresis of the lower limbs resulting in a gait disorder. […] The patient was without dysphagia.
During the course of 12 months, the patient developed an unintended weight loss of 8.5 kg of body weight. The weight loss was associated with fatigue. The patient suffered from diminished appetite. The body mass index (BMI) reduced from 23.3 kg/ m^2 to 20.5 kg/m^2. At the same time the ALS functional rating scale (ALS-FRS revised) changed from 43 to 39 units. Most of the wasting occurred within 6 month before intervention (loss of 6.5 kg of body weight; total body weight of 61.5 kg). For the pharmacological intervention of ALS-related cachexia the medication with olanzapine was initiated. Olanzapine was given orally in the dosage of 5 mg per day. Olanzapine was administered once daily using one tablet of olanzapine 5 mg in the evening. The medication attenuated ALS-related cachexia and wasting. After 2 month of olanzapine treatment the body weight was stabilized (61.0 kg). The loss of BMI was also attenuated (20.3 kg/m^2). […] Residual motor functions were mobilized. […] At the time of this report, the olanzapine dosage was increased to 10 mg per day. Olanzapine was administered twice daily using one tablet of olanzapine 5 mg each in the morning and in the evening. […] The olanzapine treatment was ongoing. Based on reports on olanzapine-related weight gain in patients with psychosis, the target dose of olanzapine for the treatment of ALS-cachexia is 20 mg per day. In the case of persistent ALS-related weight loss, the treatment with 30 mg olanzapine per day is recommended.

In data set [4] the test system is ALS-related cachexia. The experiment in a line: Study 3: olanzapine treatment of ALS-related cachexia, case report of a patient. Format: in vivo, human being. An excerpt:
A patient is reported, who developed a slowly-progressive motor neuron syndrome. The patient fulfilled the criteria for ALS. The disease began with atrophy and weakness of the proximal left arm followed by weakness of the distal muscles of left upper limb. In the course of 2 years after onset they experienced progressive atrophy and flaccid paresis of the opposite limb with only residual functions in handling articles. After 3 years the disorder progressed to the point that was complete loss of manual functions. The patient developed hypoventilation resulting in ventilatory support using non-invasive intermittent positive pressure ventilation (NIPPV). The patient was without dysphagia.
During the course of 9 months, the patient developed an unintended weight loss of 14.5 kg of body weight. The weight loss was associated with fatigue. The patient suffered from diminished appetite. The body mass index (BMI) reduced from 23.0 kg/ m^2 to 17.5 kg/m^2. Most of the wasting occurred within 5 month before intervention (loss of 8.5 kg of body weight; total body weight reduced from 55 kg to 46.5 kg). For the pharmacological intervention of ALS-related cachexia the medication with olanzapine was initiated. Olanzapine was given orally in the dosage of 5 mg per day. Olanzapine was administered once daily using one tablet of olanzapine 5 mg in the evening. After 4 weeks of treatment, olanzapine dosage was increased to 10 mg per day. Olanzapine was administered twice daily using one tablet of olanzapine 5 mg each in the morning and in the evening. The medication attenuated ALS-related cachexia and wasting. After 2 month of olanzapine treatment the body weight was stabilized (45.5 kg). The loss of BMI was also attenuated (17.1 kg/m^2). The nutritional state and the general strength improved. […] The olanzapine treatment was ongoing. Based on reports on olanzapine-related weight gain in patients with psychosis, the target dose of olanzapine for the treatment of ALS-cachexia is 20 mg per day. In the case of persistent ALS-related weight loss, the treatment with 30 mg olanzapine per day is recommended.

As for `Nc1nc2ccc(OC(F)(F)F)cc2s1` [Riluzole], the “prolonging an ALS-patient's lifetime” value in data set [1] is listed as 1.5-2.5 months.
Take `Cc1cc2c(s1)Nc1ccccc1N=C2N1CCN(C)CC1` [olanzapine]: the adverse events result in data set [2] (olanzapine orally 5 mg per day) is on record as “not associated with adverse events”; in data set [3] (olanzapine orally 5 mg per day, later increased to 10 mg per day), “not associated with adverse events”; in data set [4] (olanzapine orally 5 mg per day, after 4 weeks 10 mg per day), “not associated with adverse events”. The same molecule yielded a weight gain in data set [2] (olanzapine orally 5 mg per day (2.5 mg twice daily), within the course of 8 weeks, patient, BMI 17.2 kg/m^2 before treatment) of 6 kg. Moreover, the BMI is 18,8 kg/m^2 in data set [2] (olanzapine orally 5 mg per day, after treatment (8 weeks), BMI before treatment 17.2 kg/m^2); 20.3 kg/m^2 in data set [3] (after 2 month of olanzapine 5 mg per day orally, BMI 20.5 kg/m^2 before intervention); 17.1 kg/m^2 in data set [4] (after 2 month of olanzapine (5 mg per day, after 4 weeks 10 mg per day, orally), BMI 17.5 kg/m^2 before intervention). In addition, the body weight worked out at 61.0 kg in data set [3] (after 2 month of olanzapine 5 mg per day orally, total body weight 61.5 kg before intervention) and 45.5 kg in data set [4] (after 2 month of olanzapine (5 mg per day, after 4 weeks 10 mg per day, orally), 46.5 kg before intervention).
